In brackets after ≈: the same amount, converted by molar mass.
System: B16 F1 mouse melanoma cells
Test: Melanogenesis inhibition: intracellular melanin in α-MSH/cAMP-induced B16F1 cells
Format: cell-based
Conditions: B16-F1, 216 h, melanin induced by α-MSH/cAMP, 9 days treatment, melanin extracted by 1N NaOH, absorbance 405 nm, read-out: IC50 (inhibition of melanin formation)
Protocol: The intracellular melanin in B16 F1 mouse melanoma cells treated with varying concentrations of the sample is extracted by 1N NaOH. The brown colored melanin thus extracted is estimated at 405 nm. This brown color intensity of the melanin is quenched in the presence of the inhibitor. B16F1 mouse melanoma cells are cultured for 24 hours in a 6 well microtiter plate at a seeding density of 5000 cells per well. Melanin production is induced by α-MSH/cAMP after which the cells are treated with varying non-cytotoxic concentrations of the sample over a period of 9 days with sample treatment at regular intervals of 3 days. The melanin is extracted by 1N NaOH and the absorbance read at 405 nm in a Microplate reader. The inhibitory effect of the sample is calculated based on the degree of inhibition of melanin formation. The results are expressed as IC50 values using Graph pad prism software. The percentage of inhibition of melanin is calculated as follows % Inhibition=C−T/C×100 Where, C-absorbance due to melanin in untreated cells; T-absorbance due to melanin in sample treated cells

SMILES | IC50
O=c1cc(CO)occ1O [Kojic acid] | 100 µg/mL (≈ 704 µM)
COc1cc(/C=C/C(=O)N2CCC=CC2=O)cc(OC)c1OC [piperlongumine] | 0.625 µg/mL (≈ 1.97 µM)

— patent publication US20130245075A1, “MELANOGENESIS INHIBITION-METHODS AND COMPOSITIONS THEREOF” (priority 2012, published 2013)
